Test results from PMC12763877 (Journal of Experimental & Clinical Cancer Research : CR, 2025).
Where two headings read alike, the source gives them in different places.

Key:
[1] = system: FAK-MMP9 signaling in HUVEC; assay: Western blot of FAK and MMP-9; format: cell-based, human; settings: candesartan 15, 7.5, 3.75 µM; sunitinib 2 µM
Experimental: (§1) Total protein was extracted using RIPA lysis buffer (Solarbio, China) supplemented with phenylmethylsulfonyl fluoride (PMSF; Thermo Fisher Scientific, USA), protease inhibitor cocktail (Roche, Switzerland), and phosphatase inhibitor cocktail (Roche, Switzerland). Protein concentration was determined using a BCA protein assay kit (Thermo Fisher Scientific, USA). Equal amounts of protein were separated by 10% SDS-polyacrylamide gel electrophoresis (SDS-PAGE) and transferred onto nitrocellulose (NC) membranes. […] All primary antibodies were purchased from Cell Signaling Technology (CST, USA), except for GAPDH, which was obtained from Proteintech (Wuhan, China). After washing, the membranes were incubated with HRP-conjugated goat anti-rabbit or anti-mouse IgG secondary antibodies (Biosharp, China) for 1 h at room temperature. Protein bands were visualized using an enhanced chemiluminescence (ECL) detection system and scanned using a chemiluminescence imaging system.

[2] = system: HUVEC; assay: Sulforhodamine B proliferation assay; format: cell-based, human; settings: for IC50: Homo sapiens, HUVEC, read-out: IC50, HUVEC proliferation
Experimental: The culture medium was aspirated from the plates, and cells were fixed with 10% trichloroacetic acid (TCA) for 30 min. The plates were then washed twice with distilled water and air-dried. Subsequently, 0.4% sulforhodamine B (SRB) solution was added, and the plates were stained on a shaker for 20 min. The staining solution was discarded, and excess dye was removed by washing with freshly prepared 1% acetic acid. After air-drying, 10 mM Tris solution was added to each well. The plates were agitated on a shaker for 5 min to dissolve the dye, and the absorbance was measured at 560 nm using a microplate reader.
Angiogenesis is a multi-step process requiring coordinated endothelial functions, such as cell migration, proliferation, and extracellular matrix remodeling. […] Moreover, in the later stages of angiogenesis, vascular endothelial cells undergo proliferation and migration and further align to form cord-like, lumen-like structures(21). Thus, we conducted a vascular tube formation assay to evaluate the effect of candesartan on vascular normalization.

[3] = target: T1, APLNR (Homo sapiens, UniProt P35414); assay: cAMP assay in APLNR-HEK293T cells; format: cell-based; design: expressed in transfected cells; host or cells: HEK293; settings: forskolin 20 µM, Apelin-13 0.1 µM, compound 10^-4-100 µM
T1 sequence (P35414 1-380): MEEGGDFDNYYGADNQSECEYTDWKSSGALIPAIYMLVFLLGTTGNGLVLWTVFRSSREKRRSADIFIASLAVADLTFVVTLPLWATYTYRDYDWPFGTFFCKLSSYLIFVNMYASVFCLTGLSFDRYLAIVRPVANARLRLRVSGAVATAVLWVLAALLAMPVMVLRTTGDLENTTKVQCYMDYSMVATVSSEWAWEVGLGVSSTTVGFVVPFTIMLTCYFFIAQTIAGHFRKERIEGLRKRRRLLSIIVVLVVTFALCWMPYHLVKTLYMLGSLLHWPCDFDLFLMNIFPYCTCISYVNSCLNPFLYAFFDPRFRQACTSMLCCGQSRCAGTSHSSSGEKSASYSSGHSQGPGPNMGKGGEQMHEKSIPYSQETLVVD
Experimental: A suspension of APLNR-HEK293T cells was prepared and seeded into a 384-well OptiPlate™ 384 at a density of 1 × 10⁴ cells per well. The cells were cultured at 37℃ for 24 h. The culture medium was then removed, and 7.5 µL of serum-free medium containing 500 µM IBMX and the test compound was added to each well. The plate was incubated at 37℃ with 5% CO2 for 30 min. The concentration of cAMP was subsequently measured using the cAMP-Glo™ Assay Kit (Promega).
To characterize the molecular interactions between candesartan and APLNR, we performed molecular docking simulations using the APLNR crystal structure (PDB: 7SUS) as a template. […] In addition, previous studies have established that APLNR activation by its endogenous agonist Apelin-13 […] Gi protein signaling, thereby attenuating forskolin-induced cAMP accumulation. Then, using APLNR overexpression cell line (HEK293T-APLNR) and cAMP quantification assays to investigate the inhibitory activity of candesartan on APLNR.

[4] = system: HUVEC; assay: Wound healing and Transwell assays; format: cell-based, human; settings: candesartan 15, 7.5, 3.75 µM; sunitinib 2 µM; 48 h
Experimental: HUVEC cells were digested and inoculated into 6-well plates, with 1 × 10^5 cells added to each hole. On the second day, the gun head was drawn vertically along the edge of the upper lid of the hole plate. The cells were washed twice with PBS, the scratched cells were removed, and the serum free medium containing drugs was added. The photos were taken and recorded under the microscope for 0 h and cultured in a 5% CO2 incubator at 37℃. After 48 h, the sample was taken and photographed for recording. The cell scratch area was calculated with Image J software.
Migration assays were performed using the Transwell cell culture insert. HUVEC (3 × 10^4 cells) were suspended with 100µL serum-free medium containing different concentrations of compounds and placed in the upper layer of the Transwell cell culture insert, and 300µL medium containing 10% FBS was placed below the cell-permeable membrane. Following an incubation (48 h), the cells that had migrated through the membrane were stained with 0.2% crystal violet for 30 min and count.

[5] = system: HUVEC; assay: Tube formation assay; format: cell-based, human; settings: candesartan 15, 7.5, 3.75 µM; sunitinib 2 µM
Experimental: The 96-well plate was coated with 50 µl matrix glue per well, and then HUVEC was inoculated into the 96-well plate coated with matrix glue with a density of 4 × 10^4 cells per well. Photos were taken with an optical microscope (Nikon, China) after culture at 37℃ and 5% CO2 for 6–8 h, and the length of the generated blood vessels was analyzed using ImageJ.

[6] = system: HUVEC; assay: DNA damage: γ-H2AX western blot and alkaline comet assay; format: cell-based, human
Experimental: as §1

Structure (SMILES): CCOc1nc2cccc(C(=O)O)c2n1Cc1ccc(-c2ccccc2-c2nnn[nH]2)cc1 [Compound A-2, Candesartan]
- Expression of MMP9 and FAK [1]: significantly decreased the expression of MMP9 and FAK
- Cytotoxicity on HUVEC cells ([2]; 15 µM): no significant cytotoxicity
- IC50 ([2]; 48 h): 32.4 ± 1.69 µM
- IC50 ([2]; 72 h): 27.1 ± 0.91 µM
- cAMP accumulation (reversal of Apelin-13 effect) [3]: dose-dependently restored cAMP accumulation
- Migratory and invasive capacities of HUVECs [4]: significantly reduced the migratory and invasive capacities of HUVECs
- Tube formation: mean mesh size and total mesh area [5]: increase the mean mesh and the total meshe area
- Tube formation: number of junctions, total segment length, number of meshes [5]: significantly reduced the number of junctions, total segment length, and the number of meshes
- DNA fragmentation (comet assay) [6]: increased DNA fragmentation
- γ-H2AX expression ([6]; western blot, 48 h): dose-dependent increase
